This note sets out measurements from ChEMBL document CHEMBL1152943, “Synthesis and in vitro anti-hepatitis B virus activity of 6H-[1]benzothiopyrano[4,3-b]quinolin-9-ols” (Bioorg Med Chem, 2009).

A short description of assay [1]: Cytotoxicity against human HepG2(2.2.15) cells after 24 hrs by neutral red dye staining. It counts as functional. To be noted: HepG2 2.2.15, 24 h.
Assay [2] deals with Hepatitis B virus. In words: Antiviral activity against HBV infected in human HepG2(2.2.15) cells assessed as inhibition of HBV DNA replication. Type of assay: functional, organism-based.
The test system of assay [3] is Hepatitis B virus. In words: Antiviral activity against HBV infected in human HepG2(2.2.15) cells assessed as inhibition of HBV surface antigen at < TC50. Type of assay: functional, organism-based.
Assay [4] can be described thus: Selectivity index, ratio of TC50 for human HepG2(2.2.15) cells to IC50 for inhibition of HBV DNA replication.
The subject of assay [5] is Hepatitis B virus. Description: Antiviral activity against HBV infected in human HepG2(2.2.15) cells assessed as inhibition of HBV surface antigen. Type of assay: functional, organism-based.
The nature of assay [6]: Selectivity index, ratio of TC50 for human HepG2(2.2.15) cells to IC50 for inhibition of HBV surface antigen.
[7] abbreviates: Hepatitis B virus, HepG2 2.2.15, read-out: IC50.

For orientation: CC50 means the concentration that lowers cell viability or growth by half. A high value points to lower toxicity to the cells. The IC50 is the point on the concentration scale where inhibition reaches its midpoint. The molecule `COc1cc2nc3c(cc2c(CN2CCN(C)CC2)c1O)CSc1ccccc1-3` displayed a CC50 in assay [1] of 25.2 µM. In addition, the IC50 result in the assay with Hepatitis B virus [2] (hepg2 2.2.15) and in the assay on Hepatitis B virus [3] was “Not Active” each time.

On to `CCN(CC)Cc1c(O)c(OC)cc2nc3c(cc12)CSc1ccc(C)cc1-3`, for which the “Selectivity Index” value in assay [4] came out at 6. Moreover, the cytotoxic concentration (CC50) in assay [1] was 12 µM. For the same molecule, the 50% inhibitory concentration (IC50) in the assay with Hepatitis B virus [2] (setting [7]) was 2 µM; in the assay on Hepatitis B virus [3], “Not Active”.

On to `COc1cc2nc3c(cc2c(CN2CCOCC2)c1O)CSc1cc(F)ccc1-3`, for which, in assay [1], the CC50 was 28.8 µM. For the same molecule, the IC50 result in the assay on Hepatitis B virus [2] (hepg2 2.2.15) and in the assay on Hepatitis B virus [3] was “Not Active” throughout.

Consider `CCN(CC)Cc1c(O)c(OC)cc2nc3c(cc12)CSc1cc(F)ccc1-3`, for which the “Selectivity Index” value in assay [4] stood at 8.7. The cytotoxic concentration (CC50) in assay [1] was found to be 20.7 µM. For the same molecule, the IC50 with Hepatitis B virus [2] (setting [7]) was 2.4 µM; in the assay on Hepatitis B virus [3] it was “Not Active”.

On to `COc1cc2nc3c(cc2c(CN2CCCC2)c1O)CSc1cc(F)ccc1-3`, for which the “Selectivity Index” value in assay [4] is reported as 3.3. Further, in assay [1], half-maximal cytotoxicity (CC50) was put at 566 µM. In addition, the IC50 in the assay with Hepatitis B virus [2] (setting [7]) was 173 µM; in the assay with Hepatitis B virus [3], “Not Active”.

Regarding `COc1cc2nc3c(cc2c(CN(C)C)c1O)CSc1ccccc1-3`, it took 36.5 µM to reach half-maximal cytotoxicity in assay [1] (CC50). Besides, the figures for the IC50 entry in the assay on Hepatitis B virus [2] (hepg2 2.2.15) and with Hepatitis B virus [5] were “Not Active” and 9.3 µM, respectively. For the same molecule, in assay [6], the “Selectivity Index” value turned out to be 3.9.

Consider `COc1cc2nc3c(cc2c(CN2CCCC2)c1O)CSc1ccc(F)cc1-3`, for which, in assay [4], the “Selectivity Index” value is 9.1. The CC50 in assay [1] was determined as 435 µM. For the same molecule, the IC50 was 47.7 µM in the assay on Hepatitis B virus [2] (setting [7]) and “Not Active” in the assay with Hepatitis B virus [3].

The molecule `COc1cc2nc3c(cc2c(CN2CCOCC2)c1O)CSc1ccccc1-3` showed a CC50 in assay [1] of 42.1 µM. Besides, the IC50 entry in the assay with Hepatitis B virus [2] (hepg2 2.2.15) and with Hepatitis B virus [3] was “Not Active” in each case.

In assay [1], `COc1cc2nc3c(cc2c(CN2CCOCC2)c1O)CSc1c(C)cc(C)cc1-3` yielded a CC50 of 50.6 µM. The IC50 entry in the assay on Hepatitis B virus [2] (hepg2 2.2.15) and in the assay with Hepatitis B virus [3] was “Not Active” each time.

As for `COc1cc2nc3c(cc2c(CN2CCN(C)CC2)c1O)CSc1ccc(C)cc1-3`, the “Selectivity Index” value in assay [4] came to 4.9. Further, the CC50 in assay [1] was found to be 527 µM. Besides, the results for the IC50 with Hepatitis B virus [2] (setting [7]) and in the assay with Hepatitis B virus [3] were 107 µM and “Not Active”, respectively.

In assay [1], `COc1cc2nc3c(cc2c(CN2CCN(C)CC2)c1O)CSc1cc(F)ccc1-3` came in with a CC50 of 13.5 µM. The IC50 result in the assay on Hepatitis B virus [2] (hepg2 2.2.15) and with Hepatitis B virus [3] was “Not Active” throughout.

Turning to `COc1cc2nc3c(cc2c(CN(C)C)c1O)CSc1ccc(C)cc1-3`, half-maximal cytotoxicity in assay [1] (CC50) was put at 67.3 µM. Further, the IC50 entry is “Not Active” in the assay with Hepatitis B virus [2] (hepg2 2.2.15) and 22.1 µM in the assay with Hepatitis B virus [5]. Besides, the “Selectivity Index” value in assay [6] was determined as 3.

In assay [1], `COc1cc2nc3c(cc2c(CN2CCOCC2)c1O)CSc1cc(C)ccc1-3` registered a CC50 of 262 µM. Besides, the half-maximal inhibitory concentration (IC50) result with Hepatitis B virus [2] (hepg2 2.2.15) and with Hepatitis B virus [3] was “Not Active” each time.

`COc1cc2nc3c(cc2c(CN2CCCC2)c1O)CSc1ccc(C)cc1-3`: the “Selectivity Index” value in assay [4] was found to be 2.6. The same molecule showed a CC50 in assay [1] of 146 µM. Moreover, the half-inhibitory concentration (IC50) in the assay with Hepatitis B virus [2] (setting [7]) was 56.3 µM; in the assay with Hepatitis B virus [3], “Not Active”.

The molecule `CCN(CC)Cc1c(O)c(OC)cc2nc3c(cc12)CSc1ccccc1-3` yielded a CC50 in assay [1] of 39 µM. Moreover, the IC50 result in the assay on Hepatitis B virus [2] (hepg2 2.2.15) and with Hepatitis B virus [3] was “Not Active” throughout.

With `COc1cc2nc3c(cc2c(CN2CCCCC2)c1O)CSc1c(C)cc(C)cc1-3`, the “Selectivity Index” value in assay [4] is listed as 5.3. In assay [1], this molecule came in with a CC50 of 21.9 µM. The results for the half-inhibitory concentration (IC50) in the assay on Hepatitis B virus [2] (setting [7]) and with Hepatitis B virus [3] were 4.2 µM and “Not Active”, respectively.

On to `COc1cc2nc3c(cc2c(CN2CCOCC2)c1O)CSc1ccc(C)cc1-3`, for which the “Selectivity Index” value in assay [4] is listed as 12.4. The molecule also showed a CC50 in assay [1] of 181 µM. Further, the half-maximal inhibitory concentration (IC50) with Hepatitis B virus [2] (setting [7]) was 14.7 µM; in the assay with Hepatitis B virus [3], “Not Active”.

With `COc1cc2nc3c(cc2c(CN(C)C)c1O)CSc1c(C)cc(C)cc1-3`, the CC50 in assay [1] worked out at 32.4 µM. The 50% inhibitory concentration (IC50) entry with Hepatitis B virus [2] (hepg2 2.2.15) was “Not Active”; in the assay on Hepatitis B virus [5] it was 13.8 µM. In addition, the “Selectivity Index” value in assay [6] was 2.4.

On to `Nc1ccn([C@@H]2CS[C@H](CO)O2)c(=O)n1` [LAMIVUDINE], for which, in assay [4], the “Selectivity Index” value worked out at 9.1. The same molecule gave a CC50 in assay [1] of 2180 µM. The IC50 with Hepatitis B virus [2] (setting [7]) was 240 µM; in the assay with Hepatitis B virus [3], “Not Active”.
